Results as given in US20130096067A1, “DROSOPHILA TUMOR STEM CELL MODEL AND USES THEREOF” (priority 2011, published 2013).
Read-outs that look alike come from different tables or passages of the source. Square brackets hold non-standard residues; d marks the D form. Peptide text beside a SMILES is read from it. * marks the point of attachment. Nle = CCCC[C@H](N)C(=O)O; CH2Cl = ClC*

Tested on: Raf-1^gof intestinal tumors
Settings: for Log2 (fold) (luciferase activity, log2 of the fold difference relative to DMSO controls) / Fold (luciferase activity, fold difference relative to DMSO controls): screen of 480 ICCB compounds in vials, compounds fed to flies with one-day old Raf-1^gof tumors, esg-Gal4 luciferase
[1] = ICCB compounds fed in vials to flies with one-day old Raf-1^gof tumors, assessed three days later
[2] = ICCB compounds fed in vials to flies with one-day old Raf-1^gof tumors, assessed three days later, averaged from multiple wells
[3] = assessed three days later, averaged from multiple wells
Further: test concentration or dose not given here.

SMILES | Log2 (fold) of luciferase activity relative to DMSO controls [1] | Fold (luciferase activity relative to DMSO controls) [2] | Log2 (fold) (luciferase activity, log2 of the fold difference relative to DMSO controls) (assessed three days later) | Fold (luciferase activity, fold difference relative to DMSO controls) [3] | further results
CC1=C(/C=C/C(C)=C/C=C/C(C)=C\C(=O)O)C(C)(C)CCC1 [13-CIS RETINOIC ACID] | 0.074 | 1.053 fold | – | – | –
CCCCCC(=O)/C=C/C=C\CCCCCCCC(=O)O [13-KETOOCTADECADIENOIC ACID] | 0.320 | 1.248 fold | – | – | –
CCCCCC1OC1C/C=C\C/C=C\C/C=C\CCCC(=O)O (stereo not drawn) [14,15-EPOXYEICOSATRIENOIC ACID] | 0.322 | 1.250 fold | – | – | –
CCCCC[C@H](O)/C=C/C=C\C/C=C\C/C=C\CCCC(=O)O [15(S)-HETE] | – | – | −0.309 | 0.807 | –
CCCCC[C@@H](/C=C/C=C\C/C=C\C/C=C\CCCC(=O)O)OO [15(S)-HPETE] | 0.361 | 1.285 fold | – | – | –
CCCCCC(=O)/C=C/C=C\C/C=C\C/C=C\CCCC(=O)O [15-KETOEICOSATETRAENOIC ACID] | – | – | −0.266 | 0.832 | –
CCCCC/C=C/C=C1/C(=O)C=C[C@@H]1C/C=C\CCCC(=O)O [15d-Prostaglandin J2] | 0.294 | 1.226 fold | – | – | –
CCCCC(C)(C)C(O)C=CC1C(O)CC(=O)C1CC=CCCCC(=O)O (stereo not drawn) [16,16-DIMETHYL-PROSTAGLANDIN E2] | −0.013 | 0.991 fold | – | – | –
C=CCNC1=C2C[C@@H](C)C[C@H](OC)[C@H](O)[C@@H](C)/C=C(\C)[C@H](OC(N)=O)[C@@H](OC)/C=C\C=C(/C)C(=O)NC(=CC1=O)C2=O [17-Allylamino-geldanamycin] | – | – | −0.433 | 0.741 | –
C#CCCCCCCCCCCCCCCCC(=O)O [17-OCTADECYNOIC ACID] | – | – | −0.358 | 0.780 | –
O=C(O)CCC/C=C\C[C@H]1C(=O)C[C@@H](O)[C@@H]1/C=C/[C@@H](O)CCc1ccccc1 [17-PHENYL-TRINOR-PGE2] | – | – | −0.253 | 0.839 | –
CC(C)[C@@H](O)CC[C@@H](C)[C@H]1CC[C@H]2[C@@H]3CC=C4C[C@@H](O)CC[C@]4(C)[C@H]3CC[C@]12C [24(S)-hydroxycholesterol] | – | – | −0.244 | 0.844 | –
C=C1CCC(O)C/C1=C\C=C1\CCCC2(C)C1CCC2C(C)CCC(O)C(C)(C)O (stereo not drawn) [24,25-DIHYDROXYVITAMIN D3] | – | – | −0.363 | 0.777 | –
C=C1CC[C@H](O)C/C1=C/C=C1\CCC[C@]2(C)[C@@H]([C@H](C)CCCC(C)(C)O)CC[C@@H]12 [25-HYDROXYVITAMIN D3] | −0.113 | 0.925 fold | – | – | –
CCCCC/C=C\C/C=C\C/C=C\C/C=C\CCCC(=O)N[C@H](C)CO [(R)-METHANANDAMIDE] | 0.068 | 1.049 fold | – | – | –
CNc1ccc2oc(C[C@H]3O[C@@]4(CC[C@H]3C)O[C@H]([C@H](C)C(=O)c3ccc[nH]3)[C@H](C)C[C@H]4C)nc2c1C(=O)O [A-23187] | 0.176 | 1.130 fold | – | – | –
CC1=C(C)C(=O)C(CCCCC#CCCCC#CCO)=C(C)C1=O [AA-861] | – | – | −0.444 | 0.735 | –
CCN1C[C@]2(COC)[C@H](O)C[C@H](OC)[C@@]34[C@@H]5C[C@@]6(O)[C@H](OC(=O)c7ccccc7)[C@@H]5[C@@](OC(C)=O)([C@@H]([C@H](OC)[C@H]23)[C@@H]14)[C@@H](O)[C@@H]6OC [ACONITINE] | – | – | −0.278 | 0.825 | –
CCCCC/C=C\C/C=C\C/C=C\C/C=C\CCCCCC(=O)O [ADRENIC ACID (22:4, n-6)] | – | – | −0.364 | 0.777 | –
N#C/C(=C\c1ccc(O)c(O)c1)C(N)=S [AG213 (Tyrphostin 47)] | – | – | −0.625 | 0.648 | –
COc1cc2ncnc(Nc3cccc(Cl)c3)c2cc1OC [AG1478] | – | – | −0.655 | 0.635 | –
N#CC(=Cc1ccc2[nH]ccc2c1)C(N)=C(C#N)C#N [AG-370] | – | – | −0.559 | 0.679 | –
N#C/C(=C/c1ccc(O)c(O)c1)C(=O)NCc1ccccc1 [AG-490] | – | – | −0.272 | 0.828 | –

SMILES | Log2 (fold) of luciferase activity relative to DMSO controls [1] | Fold (luciferase activity relative to DMSO controls) [2] | Log2 (fold) (luciferase activity, log2 of the fold difference relative to DMSO controls) (assessed three days later) | Fold (luciferase activity, fold difference relative to DMSO controls) [3] | further results
CC(C)(C)c1cc(/C=C(\C#N)C(N)=S)cc(C(C)(C)C)c1O [AG-879] | 0.902 | 1.869 fold | – | – | –
CC(=O)N[C@@H](CSC/C=C(\C)CCC=C(C)C)C(=O)O [AGC] | – | – | −0.508 | 0.703 | –
CC(=O)N[C@@H](CSC/C=C(\C)CC/C=C(\C)CC/C=C(\C)CCC=C(C)C)C(=O)O [AGGC] | – | – | – | – | Fold (luciferase activity relative to DMSO controls) (in vivo): 1.001 fold; Log2 (fold) of luciferase activity relative to DMSO controls (in vivo): 0.001
CN(CCc1ccc(Cl)c(Cl)c1)CC(O)COc1ccc(NS(C)(=O)=O)cc1 (stereo not drawn) [AM 92016] | – | – | −0.341 | 0.789 | –
Cc1c(C(=O)NN2CCCCC2)nn(-c2ccc(Cl)cc2Cl)c1-c1ccc(I)cc1 [AM-251] | 0.065 | 1.046 fold | – | – | –
CC1(C)CCC(C)(C)c2cc(C(=O)Nc3ccc(C(=O)O)cc3)ccc21 [AM-580] | – | – | −0.311 | 0.806 | –
NC12CC3CC(CC(C3)C1)C2 [AMANTIDINE] | – | – | −0.252 | 0.840 | –
N=C(N)NC(=O)c1nc(Cl)c(N)nc1N [AMILORIDE] | −0.041 | 0.972 fold | – | – | –
CCCCc1oc2ccccc2c1C(=O)c1cc(I)c(OCCN(CC)CC)c(I)c1 [AMIODARONE] | 0.102 | 1.074 fold | – | – | –
CCCCC/C=C\C/C=C\CCCCCCCC(=O)NCCO [ANANDAMIDE (18:2, n-6)] | −0.101 | 0.932 fold | – | – | –
CCCCC/C=C\C/C=C\C/C=C\CCCCCCC(=O)NCCO [ANANDAMIDE (20:3, n-6)] | – | – | −0.653 | 0.636 | –
CCCCC/C=C\C/C=C\C/C=C\C/C=C\CCCC(=O)NCCO [ANANDAMIDE (20:4, n-6)] | 0.054 | 1.038 fold | – | – | –
CCCCC/C=C\C/C=C\C/C=C\C/C=C\CCCCCC(=O)NCCO [ANANDAMIDE (22:4, n-6)] | 0.007 | 1.005 fold | – | – | –
CCCCC/C=C\C/C=C\C/C=C\C/C=C\CCCC(N)=O [ARACHIDONAMIDE] | −0.069 | 0.954 fold | – | – | –
CCCCC/C=C\C/C=C\C/C=C\C/C=C\CCCC(=O)O [ARACHIDONIC ACID (20:4, n-6)] | −0.045 | 0.969 fold | – | – | –
CCCCC/C=C\C/C=C\C/C=C\C/C=C\CCCC(=O)O[C@H](COCCCCCCCCCCCCCCCC)COP(=O)([O-])OCC[N+](C)(C)C [ARACHIDONOYL-PAF] | – | – | −0.439 | 0.738 | –
CCCC[C@@H](C=O)NC(=O)[C@H](CC(C)C)NC(=O)[C@H](CC(C)C)NC(C)=O [Ac-Leu-Leu-Nle-CHO] (Ac-Leu-Leu-[Nle]-aldehyde) | – | – | −0.431 | 0.742 | –
C[C@H](N)C(=O)N[C@@H](C)C(=O)N[C@@H](Cc1ccccc1)C(=O)CCl [Ala-Ala-Phe-CMK] (H-Ala-Ala-Phe-CH2Cl) | – | – | −0.738 | 0.599 | –
O=C(O)CN1C(=O)c2cccc3cccc(c23)C1=O [Alrestatin] | – | – | −0.320 | 0.801 | –
CCCCC/C=C\C/C=C\C/C=C\C/C=C\CCCC(=O)NCc1ccc(O)c(OC)c1 [Arvanil] | – | – | −0.482 | 0.716 | –
CC(C)(c1ccc(OCC2CO2)cc1)c1ccc(OCC2CO2)cc1 (stereo not drawn) [BADGE] | 0.345 | 1.270 fold | – | – | –
CC(=O)OCOC(=O)CN(CC(=O)OCOC(C)=O)c1ccccc1OCCOc1ccccc1N(CC(=O)OCOC(C)=O)CC(=O)OCOC(C)=O [BAPTA-AM] | – | – | −0.242 | 0.846 | –
